The numbers were not newly measured in patent US20130324521A1, “IMPLANT FOR TREATING OR PREVENTING AN ANEURYSM” (priority 2010, published 2013), which cites them from elsewhere.

Turning to `Cn1cncc1[C@@](N)(c1ccc(Cl)cc1)c1ccc2c(c1)c(-c1cccc(Cl)c1)cc(=O)n2C` [R11577, Tipifarnib], the “tolerability of oral administration” value (oral administration) is on record as “tolerated well”. Further, the toxicity result (use as accredited therapeutic agent in oncological therapy) is “low toxicity”.
